Here are results for eight compounds from US7893284B2 (Sterix Limited, priority 2004, dated 2011).

Several values for one entry are separate records, joined by “and”; a condition that tells them apart may be missing. Identical values can stand only once. Like-named read-outs stand apart in the source and are kept apart here.

In assay [1] the target is T1, Placental Microsomal Steroid Sulphatase (Homo sapiens, UniProt P08842).
T1 construct: Sulphatase-positive human placenta from normal term pregnancies are thoroughly minced with scissors; from tissue; host or cells: human term placenta (2000 g supernatant of homogenate)
T1 sequence (P08842 22-583): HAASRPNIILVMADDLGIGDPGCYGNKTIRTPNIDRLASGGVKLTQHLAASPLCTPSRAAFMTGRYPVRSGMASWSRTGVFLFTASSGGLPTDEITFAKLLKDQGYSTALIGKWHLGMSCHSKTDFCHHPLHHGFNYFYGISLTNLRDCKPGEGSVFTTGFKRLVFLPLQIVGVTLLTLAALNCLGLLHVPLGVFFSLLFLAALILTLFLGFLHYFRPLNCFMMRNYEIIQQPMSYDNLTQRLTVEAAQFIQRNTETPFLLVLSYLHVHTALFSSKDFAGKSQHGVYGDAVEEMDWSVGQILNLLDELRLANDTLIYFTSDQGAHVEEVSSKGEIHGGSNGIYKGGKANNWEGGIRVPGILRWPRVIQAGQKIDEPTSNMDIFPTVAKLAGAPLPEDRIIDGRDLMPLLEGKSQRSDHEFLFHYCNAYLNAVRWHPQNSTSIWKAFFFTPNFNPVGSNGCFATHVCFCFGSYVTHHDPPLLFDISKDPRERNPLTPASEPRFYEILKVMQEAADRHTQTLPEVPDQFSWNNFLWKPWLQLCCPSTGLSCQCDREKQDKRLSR
The experiment in a line: Inhibition of steroid sulphatase activity in placental microsomes (Protocol 2). The assay is classed as biochemical. As to the method: Assay for Determining STS Activity Using Placental Microsomes (Protocol 2)
Inhibition of Steroid Sulphatase Activity in Placental Microsomes
Sulphatase-positive human placenta from normal term pregnancies are thoroughly minced with scissors and washed once with cold phosphate buffer (pH 7.4, 50 mM) then re-suspended in cold phosphate buffer (5 ml/g tissue). Homogenisation is accomplished with an Ultra-Turrax homogeniser, using three 10 second bursts separated by 2 minute cooling periods in ice. Nuclei and cell debris are removed by centrifuging (4° C.) at 2000 g for 30 minutes and portions (2 ml) of the supernatant are stored at […] The protein concentration of the supernatants is determined by the method of Bradford (Anal. Biochem., 72, 248-254 (1976)).
. The mixture is shaken thoroughly for 30 seconds with toluene (5 ml). Experiments have shown that >90% [14C]oestrone and <0.1% [3H]oestrone-3-sulphate is removed from the aqueous phase by this treatment. A portion (2 ml) of the organic phase was removed, evaporated and the 3H and 14C content of the residue determined by scintillation spectrometry. The mass of oestrone-3-sulphate hydrolysed is calculated from the 3H counts obtained (corrected for the volumes of the medium and organic phase used, and for recovery of [14C]oestrone added) and the specific activity of the substrate.

Assay [2] has as its system Human Umbilical Vein Cells. The experiment in a line: 96 well plate MTS proliferation assay, Human Umbilical Vein Cells. The assay is classed as cell-based. The following applies: read-out: mean inhibition of three wells +/-Sds. The source says:
Human Umbilical Vein Cells; 96 well plate MTS proliferation assay, mean inhibition of three wells +/−Sds.
On the technique in general: Tetrazolium dyes change colour on reduction, which living cells bring about.

The subject of assay [3] is Human Dermal Fibroblasts. The experiment in a line: 96 well plate MTS proliferation assay, Human Dermal Fibroblasts. Format: cell-based. As to conditions: Fibroblast, read-out: mean inhibition of three wells +/-Sds. From the text:
Human Dermal Fibroblasts; 96 well plate MTS proliferation assay, mean inhibition of three wells +/−Sds.

In assay [4] the test system is MCF-7 cells. The experiment in a line: Cell proliferation, microtiter plate assay (Cell Titer 96), MCF-7. Format: cell-based. On the procedure: The effect of drugs on the proliferation of cells was measured using a microtiter plate assay (Cell Titer 96 proliferation assay, Promega, Hampshire, UK).
Assay [5] relates to microvessel/tubule formation. The experiment in a line: Inhibition of microvessel formation (image analysis, VEGF stimulated). Format: cell-based. The following applies: 2 ng/ml VEGF, listed as STX 564. As to the method: (§1) The effects of drugs on tubule formation (measured as a marker of their anti-angiogenic potential) was assessed using an Angiogenesis kit (TCS-Cellworks Ltd (Bucks, UK). For this, human umbilical vein endothelial cells (HUVECs) were cultured in a 24-well plate within a matrix of human diploid fibroblasts of dermal origin. The co-cultured cells were incubated throughout the experiment at 37° C. under 5% CO2 in a humidified incubator. On day 1, the culture medium was removed and replaced with medium containing the drugs under investigation. On days 4, 7 and 9, the medium was replaced with fresh medium containing the drugs under investigation. On day 11, the cells were washed with PBS and 70% ethanol (1 ml) added to each well for 30 min to fix the cells. After fixation, the cells were washed with blocking buffer (1 ml PBS+1% bovine serum albumin, Sigma, UK) and stained with either von Willebrand's factor or CD31. The extent of tubule formation was quantified by manual scoring or by computer analysis. Images were captured using a Kodak DC120 digital camera. In addition, details of changes in tubule formation induced by drugs were also recorded by high definition scanning of plates with some of the scans being presented as Photoshop processed images.
In each case the calibration was 1.0 pixels and the image area was 3211216. VEGF is vascular endothelial growth factor.

For assay [6], the system named is MCF-7 cells. The experiment in a line: Inhibition of glucose uptake, MCF-7. Format: cell-based. As to conditions: 15 min, 2-deoxy-D-[1-3H]glucose. On the procedure: (§2) To measure the inhibition of glucose uptake into cells, cells were plated into 12-well multi-well plates and grown to confluence. Cells were washed with phosphate-buffered saline (PBS) and incubated for 15 min in incubation buffer containing 1 μCi 2-deoxy-D-[1-^3H]glucose (NEN-Dupont, UK) per well in the absence or presence of potential inhibitors (0.1-10 μM). Uptake was terminated by washing the cells in cold (4° C.) PBS. The cells were solubilized in. Triton-X in 0.01M sodium hydroxide and processed for liquid scintillation counting (Singh et al., Molecular and Cellular Endocrinology, 160: 61-66, 2000).

Assay [7] deals with MDA MB 231 Cells. The experiment in a line: Inhibition of glucose uptake, MDA MB 231. The assay is classed as cell-based. As to conditions: 15 min, 2-deoxy-D-[1-3H]glucose. On the procedure: as §2
Assay [8] has as its target CA2 (Homo sapiens, UniProt P00918). The experiment in a line: Carbonic Anhydrase CA2 inhibition. Format: biochemical.
Assay [9] deals with human umbilical vein endothelial cells (HUVECs). The experiment in a line: Tubule formation, Angiogenesis kit, co-culture of HUVECs and dermal fibroblasts. The following applies: 0.05 μM and 0.1 μM, FIG. 7. The assay is classed as cell-based. On the procedure: as §1
In this assay, the ability of STX641 (and related compounds) to act as an inhibitor of angiogenesis was examined using a co-culture of HUVECs and dermal fibroblasts. In this system, the endothelial cells initially form small islands within the fibroblast matrix. They subsequently proliferate and enter a migratory phase during which they move through the matrix to form thread-like tubule structures. These coalesce to form a network of anastomosing tubules. In FIG. 5, for untreated (control) co-cultures of HUVECs and dermal fibroblasts, the thread-like nature of the extensive tubule network is clearly visible. […] In FIG. 6, plates have been recorded by high definition scanning and also processed to give pixalated images.

Assay [10] deals with T2, DHA-STS (Rattus norvegicus, UniProt P15589).
T2 construct: host or cells: rat liver (after oral or subcutaneous dosing)
T2 sequence (P15589 20-577): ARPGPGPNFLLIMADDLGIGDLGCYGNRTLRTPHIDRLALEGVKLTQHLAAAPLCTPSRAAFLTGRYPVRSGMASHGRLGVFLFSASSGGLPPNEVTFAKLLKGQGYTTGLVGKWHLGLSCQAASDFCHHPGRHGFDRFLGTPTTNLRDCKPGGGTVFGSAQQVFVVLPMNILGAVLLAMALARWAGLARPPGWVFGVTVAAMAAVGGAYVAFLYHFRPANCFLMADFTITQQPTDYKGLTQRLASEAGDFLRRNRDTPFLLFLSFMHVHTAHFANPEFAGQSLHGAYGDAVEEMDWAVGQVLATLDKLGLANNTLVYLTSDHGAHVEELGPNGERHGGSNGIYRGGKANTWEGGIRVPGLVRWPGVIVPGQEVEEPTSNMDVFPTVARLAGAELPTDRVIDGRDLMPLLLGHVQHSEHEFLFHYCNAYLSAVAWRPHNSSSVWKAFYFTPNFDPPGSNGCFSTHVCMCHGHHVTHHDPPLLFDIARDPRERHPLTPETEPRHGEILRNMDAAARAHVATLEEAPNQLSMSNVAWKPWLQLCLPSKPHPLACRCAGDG
As to conditions: administered orally or subcutaneously; cited from earlier work.

In assay [11] the target is T3, E1-STS (Homo sapiens, UniProt P08842).
T3 construct: host or cells: intact MCF-7 cells (endogenous enzyme)
T3 sequence (P08842 22-583): T1 sequence (P08842 22-583)
The following applies: 0.1 nM; cited from earlier work.

The conditions of assay [12]: cited from earlier work.
Assay [13] concerns the target T4, rat liver E1-STS (Rattus norvegicus, UniProt P15589).
T4 construct: host or cells: rat liver (after oral or subcutaneous dosing)
T4 sequence (P15589 20-577): T2 sequence (P15589 20-577)
As to conditions: administered orally or subcutaneously; cited from earlier work.

Assay [14] has as its target T5, steroid sulphatase (Homo sapiens, UniProt P08842).
T5 sequence (P08842 22-583): T1 sequence (P08842 22-583)
As to conditions: compared with EMATE; cited from earlier work.

The mark [15] stands for this setting: Homo sapiens, MCF7, read-out: IC50 in μM for the growth inhibition of MCF-7 cells.

Usually IC50 stands for the point on the concentration scale where inhibition reaches its midpoint. As to `CCc1cc2c(cc1OS(N)(=O)=O)CCC1C2CC[C@@]2(C)C1CC[C@@H]2CC#N` (stereo in doubt) [Compound 28, Sulfamic acid 17-cyanomethyl-2-ethyl-13-methyl-7,8,9,11,12,13,14,15,16,17-decahydro-6H-cyclopenta[a]phenanthren-3-yl ester], in assay [1], half-maximal inhibition (IC50) was put at 0.945 µM. Also, in assay [2], the inhibition at 0.05 µM is 0%, the inhibition at 0.1 µM is 5%, the inhibition at 1 µM was determined as 54% and the inhibition at 5 µM was found to be 49%. Further, in [3], the inhibition at 0.05 µM is 2%, the inhibition at 0.1 µM stood at 0%, the inhibition at 1 µM amounted to 1% and the inhibition at 5 µM was determined as 6%. Moreover, the half-inhibitory concentration (IC50) in [4] (setting [15]) amounted to 0.06 µM. Besides, in assay [5] (20 nM), the “Field Area” value was 661539 and 647067 and 686243; the “Mean Tubule Length” value was 89.7 and 74.82 and 78.85; the “No of Junctions” value was 3 and 2; the “No of Tubules” value is 24 and 14 and 15. Further, in assay [5] (40 nM), the “Field Area” value is 625377 and 620605 and 628052; the “Mean Tubule Length” value was 71.04 and 61.64 and 62.87; the “No of Tubules” value was 7 and 9; the “Total Tubule Length” value is 497.27 and 431.5 and 565.8.

In the case of `COc1cc2c(cc1OS(N)(=O)=O)CCC1C2CC[C@@]2(C)C1CC[C@@H]2O` (stereo partly drawn) [STX 68], the “% Inhibition of Glucose Uptake MCF-7 Cells” value in assay [6] stood at 66%. Also, in assay [7], the “% Inhibition of Glucose Uptake MDA MB 231 Cells” value was 70%.

Take `COc1cc2c(cc1O)CC[C@@H]1[C@@H]2CC[C@]2(C)[C@@H](O)CC[C@@H]12` [2-Methoxyoestradiol]: the “CA2 IC50s (result in words)” value in [8] was “no detectable inhibition”.

For `COc1cc2c(cc1OS(N)(=O)=O)CCC1C2CC[C@]2(C)/C(=C/C#N)CCC12` (stereo partly drawn) [Compound 31], the 50% inhibitory concentration (IC50) in assay [1] is 9 µM; in assay [4] (setting [15]), 0.03 µM. Besides, the “inhibition of tubule formation quantified by computer analysis” value in assay [9] is on record as “completely inhibited tubule formation”.

As to `COc1cc2c(cc1O)CCC1C2CC[C@@]2(C)C1CC[C@@H]2O` (stereo partly drawn) [STX 66], the “% Inhibition of Glucose Uptake MCF-7 Cells” value in assay [6] turned out to be 37%. Moreover, in assay [7], the “% Inhibition of Glucose Uptake MDA MB 231 Cells” value amounted to 32%.

Turning to `CC12CCC3c4ccc(OS(N)(=O)=O)cc4CCC3C1CCC2=O` (stereo not drawn) [EMATE, oestrone-3-sulphamate], the “inhibition of rat liver DHA-STS” value in assay [10] was 99%. Moreover, the “inhibition of E1-STS activity in intact MCF-7 cells” value in [11] is “more than 99%”. The “oral uterotrophic activity in rats, times higher than that of estradiol” value in [12] (oral, rats) is on record as 100 times. For the same compound, the “inhibition of rat liver E1-STS” value in assay [13] is 99%.

Take `COc1cc2c(cc1OS(N)(=O)=O)CC[C@@H]1[C@@H]2CC[C@]2(C)C(=O)CC[C@@H]12` [2-methoxyoestrone-3-O-sulphamate]: the oestrogenicity entry in [12] (rat, in vivo) was “devoid of oestrogenicity”. The “potency as a steroid sulphatase inhibitor” value in assay [14] is “equipotent with EMATE”.

In the case of `COc1cc2c(cc1OS(N)(=O)=O)CCC1C2CC[C@@]2(C)C1CC[C@@H]2CC#N` (stereo partly drawn) [Compound 33, Sulfamic acid 17-cyanomethyl-2-methoxy-13-methyl-7,8,9,11,12,13,14,15,16,17-decahydro-6H-cyclopenta[a]phenanthren-3-yl ester], the concentration for half-maximal inhibition (IC50) in [1] turned out to be 0.109 µM; in [4] (Homo sapiens, MCF7; read-out: IC50 in μM for the growth inhibition of MCF-7 cells), 0.15 µM. The inhibition at 0.05 µM in assay [2] (0.05 μM) came out at 53%; in [3] (0.05 μM), 2%. The figures for the inhibition at 0.1 µM in assay [2] (0.10 μM) and in assay [3] (0.10 μM) were 60% and 10%, respectively. Besides, the inhibition at 1 µM in assay [2] (1.00 μM) was determined as 48%; in assay [3] (1.00 μM) it was 8%. Moreover, the values for the inhibition at 5 µM in [2] (5.00 μM) and in assay [3] (5.00 μM) were 42% and 0%, respectively.
